From US11976068B2 (CHIMERIX, INC., priority 2015, dated 2024)
Where two headings read alike, the source gives them in different places.

Assays:
[1] = target: T1, human BCRP (Homo sapiens, UniProt Q9UNQ0); assay: BCRP inhibition, bidirectional permeability of prazosin in MDCKII-BCRP monolayers; details: prazosin probe; inhibitor 1 μM Ko134 (positive control)
T1 sequence (Q9UNQ0 1-655): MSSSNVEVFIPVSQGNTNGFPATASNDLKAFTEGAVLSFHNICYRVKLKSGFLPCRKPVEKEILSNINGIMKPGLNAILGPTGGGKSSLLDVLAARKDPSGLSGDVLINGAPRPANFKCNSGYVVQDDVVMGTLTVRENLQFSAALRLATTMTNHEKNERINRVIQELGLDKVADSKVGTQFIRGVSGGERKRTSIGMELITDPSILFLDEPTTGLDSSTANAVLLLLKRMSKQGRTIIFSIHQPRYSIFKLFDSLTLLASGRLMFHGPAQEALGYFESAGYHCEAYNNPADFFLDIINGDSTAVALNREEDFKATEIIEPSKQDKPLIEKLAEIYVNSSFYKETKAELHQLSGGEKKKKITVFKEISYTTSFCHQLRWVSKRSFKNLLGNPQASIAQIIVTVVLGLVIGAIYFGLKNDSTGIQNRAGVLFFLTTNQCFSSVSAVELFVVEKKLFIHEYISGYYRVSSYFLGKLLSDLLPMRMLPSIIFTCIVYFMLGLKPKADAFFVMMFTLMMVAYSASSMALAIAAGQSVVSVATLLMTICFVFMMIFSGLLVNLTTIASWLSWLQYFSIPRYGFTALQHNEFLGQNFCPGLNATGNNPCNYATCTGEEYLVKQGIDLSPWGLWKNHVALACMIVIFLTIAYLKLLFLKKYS

[2] = test system: human cancer cells; assay: Viability of human cancer cells at 72 hours post-treatment; assay type: cell-based; details: change in potency relative to ONC201; viability at 72 hours post-treatment
Description: A number of exemplary analogs of compound (1) were prepared based on the syntheses described here. For each of these compounds, the viability of human cancer cells at 72 hours post-treatment with the compound was measured.

[3] = test system: human colon cancer xenograft; assay: Human colon cancer xenograft-bearing mice; assay type: in vivo; details: single dose, oral or intraperitoneal, compared to vehicle-treated control cohorts
[4] = target: human MDR1 (Homo sapiens, UniProt P08183); details: digoxin probe; inhibitor 10 μM Valspodar (positive control)
[5] = test system: CYP 1A2; assay: CYP mRNA induction in cryopreserved human hepatocytes
[6] = test system: CYP 2B6; assay: as above
[7] = test system: CYP 3A4; assay: as above
[8] = donor CDP, NC: flumazenil (25 μM)
[9] = donor two, NC: flumazenil (25 μM)

Chain of human MDR1 (P08183 whole entry): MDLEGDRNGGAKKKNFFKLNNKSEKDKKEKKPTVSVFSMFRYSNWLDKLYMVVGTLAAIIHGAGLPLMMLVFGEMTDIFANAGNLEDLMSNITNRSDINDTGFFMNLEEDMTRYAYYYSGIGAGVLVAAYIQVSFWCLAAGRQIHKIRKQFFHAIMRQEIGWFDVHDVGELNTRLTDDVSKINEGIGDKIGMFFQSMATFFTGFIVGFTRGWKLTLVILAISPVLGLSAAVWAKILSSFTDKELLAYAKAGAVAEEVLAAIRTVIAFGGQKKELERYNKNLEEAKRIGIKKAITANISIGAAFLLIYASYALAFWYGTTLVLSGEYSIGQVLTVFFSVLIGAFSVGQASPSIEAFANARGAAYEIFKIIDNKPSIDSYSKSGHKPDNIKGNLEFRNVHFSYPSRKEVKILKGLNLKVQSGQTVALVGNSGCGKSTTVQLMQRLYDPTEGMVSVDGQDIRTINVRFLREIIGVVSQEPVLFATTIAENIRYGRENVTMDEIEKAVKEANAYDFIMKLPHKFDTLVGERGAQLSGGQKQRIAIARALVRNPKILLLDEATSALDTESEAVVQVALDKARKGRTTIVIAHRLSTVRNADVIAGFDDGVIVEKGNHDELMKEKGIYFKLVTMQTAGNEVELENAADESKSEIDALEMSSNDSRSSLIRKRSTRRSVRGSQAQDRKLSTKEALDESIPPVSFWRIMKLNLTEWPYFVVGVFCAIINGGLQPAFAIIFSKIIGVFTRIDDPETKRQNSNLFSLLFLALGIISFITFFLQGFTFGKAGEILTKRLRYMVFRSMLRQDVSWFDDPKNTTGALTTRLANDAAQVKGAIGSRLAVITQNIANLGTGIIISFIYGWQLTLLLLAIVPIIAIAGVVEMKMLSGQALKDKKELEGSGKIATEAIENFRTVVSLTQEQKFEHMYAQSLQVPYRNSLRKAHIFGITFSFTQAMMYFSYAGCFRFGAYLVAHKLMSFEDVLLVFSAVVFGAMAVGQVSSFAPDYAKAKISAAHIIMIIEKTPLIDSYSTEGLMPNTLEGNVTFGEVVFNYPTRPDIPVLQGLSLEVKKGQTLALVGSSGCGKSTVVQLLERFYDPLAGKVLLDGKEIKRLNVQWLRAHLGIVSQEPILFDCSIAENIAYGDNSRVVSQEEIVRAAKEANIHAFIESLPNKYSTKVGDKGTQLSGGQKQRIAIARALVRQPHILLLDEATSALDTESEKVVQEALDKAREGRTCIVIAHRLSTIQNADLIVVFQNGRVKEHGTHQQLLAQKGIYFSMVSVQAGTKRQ

CC(C)C[C@H]1c2[nH]c3ccccc3c2C[C@H]2C(=O)N[C@@H](CCC(=O)OC(C)(C)C)C(=O)N21 [Ko134, reference compound]
% Inhibition (Efflux Ratio) [1]: 98.7%

O=C1C2=C(CCN(Cc3ccccc3)C2)N2CCN=C2N1Cc1cc(F)cc(F)c1 [ONC210]
Relative Potency [2]: A (A Indicates a potency increase of >2-fold of ONC201)

O=C1C2=C(CCN(Cc3ccccc3)C2)N2CCN=C2N1Cc1ccc(Cl)c(Cl)c1 [ONC211]
Relative Potency [2]: A (A Indicates a potency increase of >2-fold of ONC201)

O=C1C2=C(CCN(Cc3ccccc3)C2)N2CCN=C2N1Cc1ccc(C(F)(F)F)cc1 [ONC212]
tumor volume [3]: significant reduction of tumor volume

O=C1C2=C(CCN(Cc3ccccc3)C2)N2CCN=C2N1Cc1ccccc1F [ONC217]
Relative Potency [2]: B (B Indicates potency that is within 2-fold of ONC201)

O=C1C2=C(CCN(Cc3ccccc3)C2)N2CCN=C2N1CC1CCON1 (stereo not drawn) [ONC222]
Relative Potency [2]: B (B Indicates potency that is within 2-fold of ONC201)

C/C=C/C[C@@H](C)C(=O)[C@H]1C(=O)N[C@@H](C(C)C)C(=O)N(C)CC(=O)N(C)[C@@H](CC(C)C)C(=O)N[C@@H](C(C)C)C(=O)N(C)[C@@H](CC(C)C)C(=O)N[C@@H](C)C(=O)N[C@H](C)C(=O)N(C)[C@@H](CC(C)C)C(=O)N(C)[C@@H](CC(C)C)C(=O)N(C)[C@@H](C(C)C)C(=O)N1C [Valspodar, reference compound]
% Inhibition (Efflux Ratio) [4]: 96.8%

CCOC(=O)c1ncn2c1CN(C)C(=O)c1cc(F)ccc1-2 [flumazenil]
mRNA Induction Fold [5, 8]: 1.16 fold | mRNA Induction Fold ([5]; donor one, NC: flumazenil (25 μM)): 1.31 fold | mRNA Induction Fold [5, 9]: 1.34 fold | mRNA Induction Fold [6, 8]: 1.16 fold | mRNA Induction Fold [6, 9]: 1.27 fold | mRNA Induction Fold [7]: 1.37 fold | mRNA Induction Fold ([7]; CYP 3A4, donor CDP, NC: flumazenil (25 μM)): 1.03 fold | mRNA Induction Fold ([7]; CYP 3A4, donor two, NC: flumazenil (25 μM)): 0.93 fold

COc1ccc2[nH]c([S+]([O-])Cc3ncc(C)c(OC)c3C)nc2c1 (stereo not drawn) [omeprazole]
mRNA Induction Fold ([5]; donor CDP, PC: omeprazole (50 μM)): 28.71 fold | mRNA Induction Fold ([5]; donor one, PC: omeprazole (50 μM)): 35.53 fold | mRNA Induction Fold ([5]; donor two, PC: omeprazole (50 μM)): 31.06 fold

CCC1(c2ccccc2)C(=O)NC(=O)NC1=O [phenobarbital]
mRNA Induction Fold ([6]; donor CDP, PC: phenobarbital (750 μM)): 8.56 fold | mRNA Induction Fold ([6]; donor one, PC: phenobarbital (750 μM)): 14.38 fold | mRNA Induction Fold ([6]; donor two, PC: phenobarbital (750 μM)): 8.98 fold
